Measurements: the supplement of paper PMC10307832

Tests used:
Assay in all cases: relative viability (nuclei count vs DMSO), 5 days (fraction); higher = more cells survive
[1] = compound: C1CCC(CC1)N(CCNCCC2=C3C(=C(C=C2)O)NC(=O)CO3)C(=O)CCNCCC4=CC(=C(C=C4)Cl)Cl [AZ505] + N=C(N)NC(=N)NCCc1ccccc1 [Phenformin] (partner 250 µM)
Summary of the method: (§1)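 Lung cancer cell lines were seeded in 1536-well plates and dosed by pin tool the next day, with either a single drug or a fixed anchor-drug dose combined with five library-drug doses (not always all listed) spaced in √10 steps. Five days later, one step fixed the cells and stained their nuclei (final 0.05% Triton X-100, 1% formaldehyde, 1 ug/ml Hoechst), and nuclei were counted on 4× images. Relative viability is the nuclei count in treated wells divided by the count in vehicle wells, and each value is the median of duplicate plates.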

[2] = compound: Cn1c(=O)n(-c2ccc(C(C)(C)C#N)cc2)c2c3cc(-c4cnc5ccccc5c4)ccc3ncc21 [Dactolisib] + O=C(CCCCCCC(=O)Nc1ccccc1)NO [Vorinostat] (partner 1 µM)
Summary of the method: as §1

[3] = compound: Cn1c(=O)n(-c2ccc(C(C)(C)C#N)cc2)c2c3cc(-c4cnc5ccccc5c4)ccc3ncc21 [Dactolisib] + CS(=O)(=O)N1CCN(Cc2cc3nc(-c4cccc5[nH]ncc45)nc(N4CCOCC4)c3s2)CC1 [Pictilisib] (partner 1 µM)
Summary of the method: as §1

[4] = compound: Cn1c(=O)n(-c2ccc(C(C)(C)C#N)cc2)c2c3cc(-c4cnc5ccccc5c4)ccc3ncc21 [Dactolisib] + CC(=O)Nc1cccc(-n2c(=O)n(C3CC3)c(=O)c3c(Nc4ccc(I)cc4F)n(C)c(=O)c(C)c32)c1 [Trametinib] (partner 0.02 µM)
Summary of the method: as §1

Cell Line | relative viability ([1]; first compound 0.08 µM) | relative viability ([1]; first compound 0.253 µM) | relative viability ([1]; first compound 0.8 µM) | relative viability ([1]; first compound 2.53 µM) | relative viability ([1]; first compound 8 µM) | relative viability ([2]; first compound 0.002 µM) | relative viability ([2]; first compound 0.006325 µM) | relative viability ([2]; first compound 0.02 µM) | relative viability ([2]; first compound 0.06325 µM) | relative viability ([2]; first compound 0.2 µM) | relative viability ([3]; first compound 0.002 µM) | relative viability ([3]; first compound 0.006325 µM) | relative viability ([3]; first compound 0.02 µM) | relative viability ([3]; first compound 0.06325 µM) | relative viability ([3]; first compound 0.2 µM) | relative viability ([4]; first compound 0.002 µM) | relative viability ([4]; first compound 0.006325 µM) | relative viability ([4]; first compound 0.02 µM) | relative viability ([4]; first compound 0.06325 µM) | relative viability ([4]; first compound 0.2 µM)
NCI-H647 | 0.574 | 0.314 | 0.479 | 0.488 | 0.702 | 0.369 | 0.308 | 0.265 | 0.123 | 0.0977 | 0.448 | 0.407 | 0.409 | 0.227 | 0.151 | 0.381 | 0.42 | 0.291 | 0.118 | 0.103
HCC-78 | 0.531 | 0.611 | 0.707 | 0.731 | 0.728 | 0.33 | 0.431 | 0.415 | 0.367 | 0.303 | 0.225 | 0.22 | 0.195 | 0.206 | 0.193 | 0.726 | 0.851 | 0.69 | 0.445 | 0.312
NCI-H1755 | 0.615 | 0.592 | 0.663 | 0.639 | 0.688 | 0.758 | 0.77 | 0.71 | 0.619 | 0.477 | 0.47 | 0.471 | 0.451 | 0.368 | 0.274 | 0.779 | 0.759 | 0.724 | 0.611 | 0.486
NCI-H3122 | 0.369 | 0.353 | 0.37 | 0.357 | 0.414 | 1.03 | 0.854 | 1.09 | 1.04 | 0.671 | 0.59 | 0.608 | 0.575 | 0.442 | 0.336 | 0.207 | 0.218 | 0.232 | 0.219 | 0.176
PC-14 | 0.519 | 0.328 | 0.573 | 0.482 | 0.668 | 0.767 | 0.681 | 0.417 | 0.155 | 0.163 | 0.9 | 0.586 | 0.412 | 0.196 | 0.0762 | 0.81 | 0.583 | 0.367 | 0.0961 | 0.0834
NCI-H2347 | 0.271 | – | – | – | 0.331 | 0.557 | 0.55 | 0.585 | 0.364 | 0.378 | 0.49 | 0.599 | 0.482 | 0.389 | 0.237 | 0.277 | 0.262 | 0.263 | 0.158 | 0.295
NCI-H2228 | 0.291 | 0.222 | 0.279 | 0.392 | 0.224 | 0.652 | 0.682 | 0.429 | 0.327 | 0.164 | 0.355 | 0.291 | 0.248 | 0.173 | 0.222 | 0.688 | 0.4 | 0.383 | 0.218 | 0.144
NCI-H1793 | 0.248 | 0.338 | 0.454 | – | 0.368 | 0.794 | 0.358 | 0.293 | 0.205 | 0.197 | 0.311 | 0.315 | 0.175 | 0.211 | 0.203 | 0.418 | 0.359 | 0.244 | 0.231 | 0.196
EKVX | 0.21 | 0.245 | 0.238 | 0.198 | 0.251 | 0.794 | 0.72 | 0.657 | 0.359 | 0.273 | 0.402 | 0.433 | 0.37 | 0.293 | 0.241 | 0.368 | 0.377 | 0.258 | 0.229 | 0.213
HOP-62 | 0.63 | 0.797 | 0.67 | 0.725 | 0.784 | 0.572 | 0.541 | 0.543 | 0.177 | 0.219 | 0.967 | 0.58 | 0.604 | 0.236 | 0.254 | 0.429 | 0.349 | 0.369 | 0.23 | 0.195
NCI-H2126 | 0.466 | 0.537 | 0.491 | 0.526 | 0.538 | 0.856 | 0.763 | 0.594 | 0.427 | 0.426 | 0.563 | 0.461 | 0.434 | 0.425 | 0.368 | 0.557 | 0.548 | 0.433 | 0.38 | 0.306
NCI-H358 | 0.356 | 0.346 | 0.351 | 0.24 | 0.364 | 0.68 | 0.652 | 0.503 | 0.154 | 0.165 | 0.345 | 0.302 | 0.337 | 0.196 | 0.215 | 0.123 | 0.149 | 0.124 | 0.104 | 0.106
EPLC-272H | – | 0.283 | 0.304 | 0.241 | 0.324 | 0.571 | 0.409 | 0.261 | 0.36 | 0.159 | 0.316 | 0.239 | 0.332 | 0.373 | 0.24 | 0.264 | 0.261 | 0.28 | 0.245 | 0.201
PC-3 [JPC-3] | 0.423 | 0.446 | 0.433 | 0.484 | 0.422 | 0.968 | 0.843 | 0.748 | 0.782 | 0.426 | 0.78 | 0.784 | 0.696 | 0.697 | 0.572 | 0.718 | 0.673 | 0.76 | 0.595 | 0.451
NCI-H650 | 0.443 | 0.389 | 0.468 | 0.509 | 0.457 | 0.414 | 0.501 | 0.469 | 0.306 | 0.179 | 0.86 | 0.771 | 0.704 | 0.558 | 0.451 | 1.04 | 0.906 | 0.942 | 0.527 | 0.424
NCI-H838 | 0.503 | 0.491 | 0.49 | 0.466 | 0.579 | 0.746 | 0.575 | 0.497 | 0.36 | 0.306 | 0.351 | 0.302 | 0.239 | 0.204 | 0.218 | 0.456 | 0.35 | 0.34 | 0.179 | 0.145
